Results taken from patent publication US12084451B2, “Compositions and methods for reducing tactile dysfunction, anxiety, and social impairment” (President and Fellows of Harvard College, priority 2018, dated 2024).
Where “and” joins values, the source holds several entries; their conditions need not be identical. Equal values may be shown once.

Legend:
Type in all cases: cell-based
hGABAA α1β3γ2 [1] = molecular target: T1, hGABAA α1β3γ2 (Homo sapiens, UniProt P14867+P18507+P28472); test: hGABAA IonFlux HT PAM Assay, α1β3γ2; details: for Mean Maximal Effect (% of Control): normalized to baseline peak current induced by EC20 GABA (1 μM) for 2 seconds
From the text: (§1) Ligand-gated ion channels targeted were hGABAA α1β3γ2 and hGABAA α2β3γ2.
(§2) Electrophysiological assays conducted to profile nine (9) compounds for activities on the on channel targets listed above for Positive Allosteric Modulator (PAM) activities using the IonFlux HT electrophysiological platform.
The parameters measured are described in the Data Analysis section.
(§3) All wells included a final DMSO concentration of 0.33% including all control wells.
(§4) All recordings were obtained from a holding potential of −60 mV. The compound addition sequence that was used for all additions was the same for all assays. […] The process was repeated with the next ascending concentration of test compound (FIG. 1).
(§5) All data were first exported to an Excel compatible data file and then analyzed using Graph Pad Prism software.

hGABAA α2β3γ2 = hGABAA α2β3γ2 (Homo sapiens, UniProt P18507+P28472+P47869); test: hGABAA IonFlux HT PAM Assay, α2β3γ2; details: for Mean Maximal Effect (% of Control): normalized to baseline peak current induced by EC20 GABA (0.8 μM) for 2 seconds
From the text: as §1, §2
The parameters measured are described in the Data Analysis section. […] Open circles represent data that has been excluded from the curve fitting. Where no curve fit was possible, n/c (not calculable) is listed.
as §3, §4, §5

hGABAA α1β3γ2 [2] = molecular target: T1, hGABAA α1β3γ2; test: hGABAA α1β3γ2 IonFlux HT Agonist Assay; parameters: activation of hGABAA α1β3γ2 ion channel currents / activation: dose or concentration left out as unconfirmed
Protocol: Ligand-gated ion channel targets were hGABAA α2β3γ2 and hGABAA α1β3γ2. Electrophysiological assays conducted to profile two compounds for agonist activities on hGABAA α2β3γ2 and seven compounds for agonist activities on hGABAA α1β3γ2 using the IonFlux HT electrophysiological platform.
The parameters measured are described in the Data Analysis section. […] Note: The test compounds was applied over two (2) ‘experimental patterns’ in increasing concentrations.
The supplied compound was prepared in DMSO to concentrations that were 300× the final assay concentrations. Aliquots were taken out and diluted 300× into external buffer to give the final assay concentration. At wells included a final DMSO concentration of 0.33% including all control wets.
All recordings were obtained from a holding potential of −60 mV. The compound addition sequence that was used for all additions was the same for all assays. […] Each test concentration of compound was applied for 2 seconds followed by 60 seconds wash. The process was repeated with the next ascending concentration of test compound. The test compounds were applied over two (2) ‘experimental patterns’ in increasing concentrations (FIG. 11).
AM data were first exported to an Excel compatible data file and then analyzed using Graph Pad Prism software.

[3] = Estimated EC50, positive modulation of EC20 GABA current
[4] = read-out: Normalized Percentage Activation Mean

T1 sequence (P14867 28-456): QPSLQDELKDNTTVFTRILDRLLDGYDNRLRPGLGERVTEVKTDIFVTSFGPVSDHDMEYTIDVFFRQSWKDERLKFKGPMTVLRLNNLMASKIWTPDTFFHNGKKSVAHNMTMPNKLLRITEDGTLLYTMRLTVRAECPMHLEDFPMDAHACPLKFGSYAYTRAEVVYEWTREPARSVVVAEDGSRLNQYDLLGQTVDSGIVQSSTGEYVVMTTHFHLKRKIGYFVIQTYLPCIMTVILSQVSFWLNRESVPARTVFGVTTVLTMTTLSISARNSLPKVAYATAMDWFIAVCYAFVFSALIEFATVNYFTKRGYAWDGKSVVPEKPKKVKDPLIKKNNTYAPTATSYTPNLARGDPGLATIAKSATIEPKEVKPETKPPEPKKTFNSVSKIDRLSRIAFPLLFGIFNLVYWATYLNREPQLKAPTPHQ
T1 sequence (P28472 26-473): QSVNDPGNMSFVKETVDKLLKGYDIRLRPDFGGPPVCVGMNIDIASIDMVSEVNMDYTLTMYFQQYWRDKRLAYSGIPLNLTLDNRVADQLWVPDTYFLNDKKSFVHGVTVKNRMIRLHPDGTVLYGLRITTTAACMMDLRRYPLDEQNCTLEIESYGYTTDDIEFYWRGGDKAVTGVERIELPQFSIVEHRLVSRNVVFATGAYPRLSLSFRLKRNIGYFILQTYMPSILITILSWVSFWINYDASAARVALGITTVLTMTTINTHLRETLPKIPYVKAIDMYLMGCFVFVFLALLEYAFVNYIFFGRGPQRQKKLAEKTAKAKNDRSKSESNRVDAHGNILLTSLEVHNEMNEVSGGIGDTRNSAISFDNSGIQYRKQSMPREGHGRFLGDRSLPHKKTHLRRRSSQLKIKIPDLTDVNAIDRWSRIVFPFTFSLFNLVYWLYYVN
T1 sequence (P18507 40-475): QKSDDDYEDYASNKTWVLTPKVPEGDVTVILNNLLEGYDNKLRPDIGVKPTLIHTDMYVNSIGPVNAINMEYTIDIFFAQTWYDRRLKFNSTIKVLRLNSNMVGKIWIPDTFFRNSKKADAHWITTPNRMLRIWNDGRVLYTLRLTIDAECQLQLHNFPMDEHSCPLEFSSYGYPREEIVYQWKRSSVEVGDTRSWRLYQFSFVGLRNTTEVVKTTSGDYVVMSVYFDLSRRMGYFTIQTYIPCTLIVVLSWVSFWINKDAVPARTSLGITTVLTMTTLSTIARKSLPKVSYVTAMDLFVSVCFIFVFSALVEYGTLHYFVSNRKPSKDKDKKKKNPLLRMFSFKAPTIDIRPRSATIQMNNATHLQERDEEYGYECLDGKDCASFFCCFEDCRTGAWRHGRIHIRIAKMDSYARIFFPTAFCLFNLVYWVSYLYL
Chain of hGABAA α2β3γ2 (P47869 29-451): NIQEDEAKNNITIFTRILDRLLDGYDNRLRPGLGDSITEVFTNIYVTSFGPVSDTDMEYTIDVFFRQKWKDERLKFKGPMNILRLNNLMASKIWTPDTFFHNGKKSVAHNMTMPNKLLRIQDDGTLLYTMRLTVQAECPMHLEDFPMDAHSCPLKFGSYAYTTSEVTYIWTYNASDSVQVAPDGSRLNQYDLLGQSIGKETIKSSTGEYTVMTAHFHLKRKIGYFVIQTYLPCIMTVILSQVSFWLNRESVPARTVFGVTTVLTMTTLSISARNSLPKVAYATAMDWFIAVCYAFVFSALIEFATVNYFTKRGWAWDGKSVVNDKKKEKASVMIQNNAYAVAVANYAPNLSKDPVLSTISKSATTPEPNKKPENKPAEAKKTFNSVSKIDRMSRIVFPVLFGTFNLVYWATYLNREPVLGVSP
Chain of hGABAA α2β3γ2 (P28472 26-473): as the sequence (P28472 26-473) above
Chain of hGABAA α2β3γ2 (P18507 40-475): as the sequence (P18507 40-475) above

CN1C(=O)CN=C(c2ccccc2)c2cc(Cl)ccc21 [Diazepam]
(%) Control mean (hGABAA α1β3γ2 [1]; 0.003 μM + EC20 GABA): 124.0 % Control and 122.6 % Control and 125.3 % Control
(%) Control n1 (hGABAA α1β3γ2 [1]; 0.003 μM + EC20 GABA): 123.6 % Control and 125.3 % Control and 121.6 % Control
(%) Control n2 (hGABAA α1β3γ2 [1]; 0.003 μM + EC20 GABA): 124.3 % Control and 119.9 % Control and 129.0 % Control
(%) Control mean (hGABAA α1β3γ2 [1]; 0.01 μM + EC20 GABA): 148.4 % Control and 139.6 % Control and 149.7 % Control
(%) Control n1 (hGABAA α1β3γ2 [1]; 0.01 μM + EC20 GABA): 149.5 % Control and 141.4 % Control and 137.2 % Control
(%) Control n2 (hGABAA α1β3γ2 [1]; 0.01 μM + EC20 GABA): 147.2 % Control and 137.8 % Control and 162.2 % Control
(%) Control mean (hGABAA α1β3γ2 [1]; 0.03 μM + EC20 GABA): 186.5 % Control and 171.8 % Control and 193.2 % Control
(%) Control n1 (hGABAA α1β3γ2 [1]; 0.03 μM + EC20 GABA): 182.7 % Control and 182.4 % Control and 169.0 % Control
(%) Control n2 (hGABAA α1β3γ2 [1]; 0.03 μM + EC20 GABA): 190.3 % Control and 161.2 % Control and 217.4 % Control
(%) Control mean (hGABAA α1β3γ2 [1]; 0.1 μM + EC20 GABA): 250.0 % Control and 234.6 % Control and 223.1 % Control
(%) Control n1 (hGABAA α1β3γ2 [1]; 0.1 μM + EC20 GABA): 230.0 % Control and 227.4 % Control and 232.1 % Control
(%) Control n2 (hGABAA α1β3γ2 [1]; 0.1 μM + EC20 GABA): 269.9 % Control and 241.8 % Control and 214.1 % Control
(%) Control mean (hGABAA α1β3γ2 [1]; 0.3 μM + EC20 GABA): 298.9 % Control and 284.3 % Control and 269.3 % Control
(%) Control n1 (hGABAA α1β3γ2 [1]; 0.3 μM + EC20 GABA): 265.9 % Control and 275.1 % Control and 262.8 % Control
(%) Control n2 (hGABAA α1β3γ2 [1]; 0.3 μM + EC20 GABA): 331.8 % Control and 293.6 % Control and 275.8 % Control
(%) Control mean (hGABAA α1β3γ2 [1]; 1 μM + EC20 GABA): 317.0 % Control and 310.4 % Control and 314.3 % Control
(%) Control n1 (hGABAA α1β3γ2 [1]; 1 μM + EC20 GABA): 284.9 % Control and 296.1 % Control and 284.8 % Control
(%) Control n2 (hGABAA α1β3γ2 [1]; 1 μM + EC20 GABA): 349.1 % Control and 324.7 % Control and 343.8 % Control
Mean Maximal Effect (% of Control) (hGABAA α1β3γ2 [1]): 317 % of Control and 310 % of Control and 314 % of Control
(%) Control mean (hGABAA α2β3γ2; 0.003 μM + EC20 GABA): 116.0 % Control and 114.8 % Control and 100.4 % Control
(%) Control n1 (hGABAA α2β3γ2; 0.003 μM + EC20 GABA): 113.8 % Control and 112.4 % Control and 113.2 % Control
(%) Control n2 (hGABAA α2β3γ2; 0.003 μM + EC20 GABA): 118.1 % Control and 117.2 % Control and 87.7 % Control
(%) Control mean (hGABAA α2β3γ2; 0.01 μM + EC20 GABA): 135.3 % Control and 124.0 % Control and 118.1 % Control
(%) Control n1 (hGABAA α2β3γ2; 0.01 μM + EC20 GABA): 131.2 % Control and 123.3 % Control and 122.4 % Control
(%) Control n2 (hGABAA α2β3γ2; 0.01 μM + EC20 GABA): 139.3 % Control and 124.7 % Control and 113.8 % Control
(%) Control mean (hGABAA α2β3γ2; 0.03 μM + EC20 GABA): 162.5 % Control and 158.2 % Control and 142.3 % Control
(%) Control n1 (hGABAA α2β3γ2; 0.03 μM + EC20 GABA): 155.2 % Control and 156.2 % Control and 150.5 % Control
(%) Control n2 (hGABAA α2β3γ2; 0.03 μM + EC20 GABA): 169.9 % Control and 160.3 % Control and 134.2 % Control
(%) Control mean (hGABAA α2β3γ2; 0.1 μM + EC20 GABA): 252.4 % Control and 255.8 % Control and 206.0 % Control
(%) Control n1 (hGABAA α2β3γ2; 0.1 μM + EC20 GABA): 261.1 % Control and 261.6 % Control and 216.8 % Control
(%) Control n2 (hGABAA α2β3γ2; 0.1 μM + EC20 GABA): 243.8 % Control and 249.9 % Control and 195.1 % Control
(%) Control mean (hGABAA α2β3γ2; 0.3 μM + EC20 GABA): 253.5 % Control and 261.6 % Control and 214.1 % Control
(%) Control n1 (hGABAA α2β3γ2; 0.3 μM + EC20 GABA): 267.8 % Control and 260.9 % Control and 230.4 % Control
(%) Control n2 (hGABAA α2β3γ2; 0.3 μM + EC20 GABA): 239.3 % Control and 262.3 % Control and 197.8 % Control
(%) Control mean (hGABAA α2β3γ2; 1 μM + EC20 GABA): 262.3 % Control and 269.3 % Control and 224.3 % Control
(%) Control n1 (hGABAA α2β3γ2; 1 μM + EC20 GABA): 274.0 % Control and 285.9 % Control and 235.0 % Control
(%) Control n2 (hGABAA α2β3γ2; 1 μM + EC20 GABA): 250.6 % Control and 252.8 % Control and 213.6 % Control
Mean Maximal Effect (% of Control) (hGABAA α2β3γ2): 262 % of Control and 269 % of Control and 224 % of Control

CCN(CCN(C)C)C(=O)OC1c2nccnc2C(=O)N1c1ccc(Cl)cn1 (stereo not shown) [Compound 4]
EC50 (hGABAA α1β3γ2 [1]; [3]): 2.47 µM
Mean Maximal Effect (% of Control) (hGABAA α1β3γ2 [1]): 170 % of Control
EC50 (hGABAA α1β3γ2 [2]): > 1000 µM
activation of hGABAA α1β3γ2 ion channel currents (hGABAA α1β3γ2 [2]): did not activate
activation (hGABAA α1β3γ2 [2]; [4]): 4.45%
activation at 0.3 µM (hGABAA α1β3γ2 [2]; [4]): 5.26%
activation at 1 µM (hGABAA α1β3γ2 [2]; [4]): 5.13%
activation at 3 µM (hGABAA α1β3γ2 [2]; [4]): 5.89%
activation at 10 µM (hGABAA α1β3γ2 [2]; [4]): 5.68%
activation at 30 µM (hGABAA α1β3γ2 [2]; [4]): 6.45%
activation at 100 µM (hGABAA α1β3γ2 [2]; [4]): 5.97%
activation at 300 µM (hGABAA α1β3γ2 [2]; [4]): 5.85%
EC50 (hGABAA α2β3γ2; [3]): 5.8 µM
Mean Maximal Effect (% of Control) (hGABAA α2β3γ2): 126 % of Control
